Experiment [1] deals with T1, hyaluronic acid-degrading enzyme (derived from bovine testicles, Type IV-S) (Bos taurus, UniProt Q2YDK3).
T1 construct: derived from bovine testicles manufactured by Sigma Corporation, Type IV-S; purchased Sigma Corporation Type IV-S; host or cells: bovine testicles
T1 sequence (Q2YDK3 36-553): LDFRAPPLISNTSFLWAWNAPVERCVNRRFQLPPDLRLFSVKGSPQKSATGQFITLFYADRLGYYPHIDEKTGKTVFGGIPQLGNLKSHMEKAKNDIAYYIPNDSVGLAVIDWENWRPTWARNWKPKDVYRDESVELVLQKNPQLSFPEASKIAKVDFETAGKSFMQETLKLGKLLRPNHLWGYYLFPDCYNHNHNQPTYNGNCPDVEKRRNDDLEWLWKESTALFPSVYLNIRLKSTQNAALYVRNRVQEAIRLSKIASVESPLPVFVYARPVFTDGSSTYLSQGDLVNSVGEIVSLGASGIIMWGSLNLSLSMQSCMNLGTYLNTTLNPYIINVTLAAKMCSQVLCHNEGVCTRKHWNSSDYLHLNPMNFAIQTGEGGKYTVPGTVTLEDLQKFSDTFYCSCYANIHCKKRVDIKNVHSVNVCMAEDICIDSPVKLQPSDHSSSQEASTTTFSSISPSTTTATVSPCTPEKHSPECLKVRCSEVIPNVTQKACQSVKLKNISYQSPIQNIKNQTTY
Kind of experiment: Hyaluronic acid-degrading enzyme activity inhibition test. Type of experiment: biochemical. As to the method: Using the compound 7 obtained in Example 2, the compound 34, and magnesium ascorbate phosphate as a comparative control, a hyaluronic acid-degrading enzyme activity inhibition test was carried out.
First, the following solutions shown in A to H were each prepared. • A: 0.1M acetate buffer solution was prepared by dissolving 0.60 g of acetic acid in 100 ml of distilled water. • B: A hyaluronidase solution was prepared by dissolving 7.2 mg of a hyaluronic acid-degrading enzyme (derived from bovine testicles manufactured by Sigma Corporation, Type IV-S) into 3.0 ml of the acetate buffer (prepared in the above A). • C: An activator solution was prepared by dissolving 1.0 mg of compound 48/80 (a hyaluronidase activator manufactured by Sigma Corporation) into 10.0 ml of the acetate buffer (prepared in the above A). • D: A hyaluronic acid solution was prepared by dissolving 12.0 mg of potassium hyaluronate (manufactured by Wako Pure Chemical Industries, Ltd.) into 15.0 ml of the acetate buffer (prepared in the above A). • E: A 0.4N sodium hydroxide aqueous solution was prepared by dissolving 1.60 g of sodium hydroxide into 100 ml of distilled water. • F: After 4.95 g of boric acid was dissolved into 50 ml of distilled water, a 1N sodium hydroxide aqueous solution was added until pH reached 9.1. Subsequently, the whole amount was made 100 ml by adding distilled water. • G: 1.0 g of p-dimethylaminobenzaldehyde, 1.25 ml of 10N hydrochloric acid, and 8.75 ml of acetic acid were mixed. The solution was used after the whole amount was made 100 ml by adding acetic acid immediately before use. • H: Each test compound was dissolved in the acetate buffer (prepared in the above A) so the final test concentration became 0.5 mg/ml and 1.0 mg/ml.
Next, the experimental operation was carried out with the procedures shown in the following (1) to (8).
(1) 0.2 ml of the test compound solution (prepared in the above H) and 0.1 ml of the hyaluronic acid-degrading enzyme solution (prepared in the B) were mixed and the whole was incubated at 37° C. for 20 minutes.
(2) To the above reaction solution was added 0.2 ml of the activator solution (prepared in the above C) and the whole was incubated at 37° C. for 20 minutes.
(3) To the above reaction solution was added 0.5 ml of the hyaluronic acid solution (prepared in the above D), and the whole was incubated at 37° C. for 40 minutes.
(4) To the above reaction solution was added 0.2 ml of the 0.4N sodium hydroxide aqueous solution (prepared in the above E), and the whole was cooled in an ice bath.
(5) To the above reaction solution was added 0.2 ml of the boric acid solution (prepared in the above F), and the whole was heated at 100° C. for 3 minutes.
(6) The above reaction solution was cooled in an ice bath.
(7) To the above reaction solution was added 3.0 ml of the p-dimethylaminobenzaldehyde solution (prepared in the above G), and the whole was incubated at 37° C. for 20 minutes.
(8) Absorbance of the reaction solution at 585 nm was measured using a spectrophotometer.
The above experimental operations were repeated three times, and the resulting numeric value was inserted in the following calculation formula and a mean value thereof was regarded as a hyaluronic acid-degrading enzyme activity inhibition ratio (%). Hyaluronic acid-degrading enzyme activity inhibition ratio (%)=(A−B)/A×100
A=absorbance obtained at the time when operation was carried out with addition of no test compound
B=absorbance obtained at the time when operation was carried out with addition of test compound
The compounds of the invention and magnesium ascorbate phosphate were each used in an enzymatic reaction solution in amounts of 0.1 mg/ml, 0.2 mg/ml, and 0.4 mg/ml, and the results were shown in Table 7 (since the compound 7 was not dissolved in a concentration of 0.4 mg/ml, the test was not carried out).

Experiment [2] can be described thus: Test of scavenging DPPH radical (Test Example 9, microplate reader, 540 nm). The note with it: final concentration of 25 μg/mL; 20 minutes, room temperature. An excerpt: Using the compound 36 obtained in Example 20, the compound 37 obtained in Example 21, the compound 38 obtained in Example 22, the compound 39 obtained in Example 23, the compound 40 obtained in Example 24, the compound 42 obtained in Example 26, the compound 45 obtained in Example 29, the compound 46 obtained in Example 30, the compound 48 obtained in Example 32 and, as a comparative control, dl-α-tocopherol (manufactured by Tokyo Kasei Kogyo Co., Ltd.), a test of scavenging DDPH (1,1-diphenyl-2-picrylhydrazyl) radical, a stable radical, was carried out.
100 μl of 800 μM DPPH ethanol solution was added to 80 μl of 100 mM Tris-HCl buffer (pH 7.4) and 20 μl of an ethanol solution of the compound 36 (final concentration of 25 μg/mL), followed by sufficient stirring. After the resulting mixture was allowed to stand in a dark place at room temperature for 20 minutes, the absorbance at 540 nm was measured on a microplate reader (absorbance of the test solution).
The compounds 37, 38, 39, 40, 42, 45, 46, and 48 of the invention as well as dl-α-tocopherol as a known radical scavenger were similarly tested.
As a control, using 80 μl of 100 mM Tris-HCl buffer (pH 7.4), 20 μl of ethanol, and 100 μl of 800 μM DPPH ethanol solution, the same operation was carried out as described above and the absorbance was measured (absorbance of the control solution).
With the individual compounds, the same measurement was repeated four times, and the mean value was inserted in the following formula to calculate a DPPH radical-scavenging ratio. DPPH radical-scavenging ratio (%)=[1−(absorbance of sample solution/absorbance of control solution)]×100
Background: Loss of DPPH colour is used to gauge radical scavenging.

Experiment [3] concerns mushroom tyrosinase. Nature of the experiment: Tyrosinase activity inhibition test using L-dopa as substrate (Test Examples 3 to 6, microplate reader, 490 nm). The experiment is classed as biochemical. As to the method: Using the compound 37 obtained in Example 21, the compound 38 obtained in Example 22, the compound 39 obtained in Example 23, and arbutin (manufactured by Tokyo Kasei Kogyo Co., Ltd.) as a comparative control, a tyrosinase activity inhibition test was carried out using L-dopa as a substrate.
The specific test procedures are as follows. • (1) 72 μl of a phosphate buffer prepared by dissolving 1.000 g of sodium dihydrogen phosphate and 1.186 g of disodium hydrogen phosphate in 500 ml of distilled water, 80 μl of a substrate solution prepared by dissolving 32.7 mg of L-DOPA in 200 ml of distilled water, and 8 μl of a test solution prepared by dissolving the test compound in dimethyl sulfoxide were mixed together. • (2) 80 μl of an enzyme solution prepared by dissolving 3.0 mg (2400 units; manufactured by Sigma Corporation) of mushroom tyrosinase in 7.0 ml of distilled water and diluting the solution with the above phosphate buffer so as to make it five times in amount was added to the solution prepared in (1), and the whole was stirred for 15 seconds. The resulting solution was maintained at 25° C., and the absorbance at 490 nm was measured by a microplate reader one minute and 45 seconds later and 2 minutes and 45 seconds later. • (3) The test operations in the above (1) and (2) were conducted four times for the individual test compounds and blank test (only dimethyl sulfoxide), and the resulting numeric value was inserted in the following calculation formula and a mean value thereof was regarded as a tyrosinase activity inhibition ratio (%). Tyrosinase activity inhibition ratio (%)=[(T^1−T^2)/T^1]×100 • T^1=difference in absorbance of solution with addition of no test compound between 2 minutes and 45 seconds later and one minute and 45 seconds later • T^2=difference in absorbance of solution with addition of test compound was added between 2 minutes and 45 seconds later and one minute and 45 seconds later
Using the compound 42 obtained in Example 26, the compound 45 obtained in Example 29, the compound 46 obtained in Example 30, and arbutin (manufactured by Tokyo Kasei Kogyo Co., Ltd.) as a comparative control, a tyrosinase activity inhibition test was carried out using L-dopa as a substrate. The test procedure was in accordance with Test Example 3.
Using the compound 34 obtained in Example 18, the compound 47 obtained in Example 31, and arbutin (manufactured by Tokyo Kasei Kogyo Co., Ltd.) as a comparative control, a tyrosinase activity inhibition test was carried out using L-dopa as a substrate. The test procedure was in accordance with Test Example 3.
Using the compound 48 obtained in Example 32 and arbutin (manufactured by Tokyo Kasei Kogyo Co., Ltd.) as a comparative control, a tyrosinase activity inhibition test was carried out using L-dopa as a substrate. The test procedure was in accordance with Test Example 3.

The subject of experiment [4] is mushroom tyrosinase. Nature of the experiment: Tyrosinase activity inhibition test using L-dopa as substrate (Test Examples 1 and 2, absorbance at 475 nm). Type of experiment: biochemical. The protocol:
Using the compound 7 obtained in Example 2, the compound 13 obtained in Example 5, a mixture of the compound 18 and the compound 19 (existing molar ratio 45:55) obtained in Example 7, and arbutin (manufactured by Tokyo Kasei Kogyo Co., Ltd.) as a comparative control, a tyrosinase activity inhibition test was carried out using L-dopa as a substrate.
The specific test procedures are as follows. • (1) 1.80 ml of a phosphate buffer prepared by dissolving 1.000 g of sodium dihydrogen phosphate and 1.186 g of disodium hydrogen phosphate in 500 ml of distilled water, 1.00 ml of a substrate solution prepared by dissolving 32.7 mg of L-DOPA in 200 ml of distilled water, and 0.10 ml of a test solution prepared by dissolving the test compound in dimethyl sulfoxide were mixed together. • (2) 0.10 ml of an enzyme solution prepared by dissolving 3.0 mg (2400 units; manufactured by Sigma Corporation) of mushroom tyrosinase in 7.0 ml of distilled water was added to the solution prepared in (1), and the whole was stirred for 15 seconds. The resulting solution was maintained at 25° C., and the absorbance at 475 nm was measured one minute and 45 seconds later and 2 minutes and 45 seconds later. • (3) The test operations in the above (1) and (2) were conducted three times for the individual test compounds and blank test (only dimethyl sulfoxide), and the resulting numeric value was inserted in the following calculation formula and a mean value thereof was regarded as a tyrosinase activity inhibition ratio (%). Tyrosinase activity inhibition ratio (%)=[(T^1−T^2)/T^1]×100 • T^1=difference in absorbance of solution with addition of no test compound between 2 minutes and 45 seconds later and one minute and 45 seconds later • T^2=difference in absorbance of solution with addition of test compound was added between 2 minutes and 45 seconds later and one minute and 45 seconds later
Using the compound 40 obtained in Example 24 and arbutin (manufactured by Tokyo Kasei Kogyo Co., Ltd.) as a comparative control, a tyrosinase activity inhibition test was carried out using L-dopa as a substrate. The test procedure was in accordance with Test Example 1.

Where [5] appears, read: 0.25 mg/mL, Table 6, 0.50 mg/mL.

With “magnesium ascorbate phosphate [reference compound]”, the figures for the “Hyaluronic acid-degrading enzyme activity inhibition ratio (%)” value in experiment [1] (0.1 mg/mL), in experiment [1] (0.2 mg/mL) and in experiment [1] (0.4 mg/mL) were 3.3%, 4.2% and 7.6%, respectively.

For the compound `COC(=O)CCCCCCC(CC(=O)CCc1ccc(O)c(OC)c1)OC` (stereo not shown) [Compound 36], the “DPPH radical-scavenging ratio (%)” value in experiment [2] was determined as 31.7%.

Take `COc1cc(CCC(O)CC(CCCCCCO)OC)ccc1O` (stereo not shown) [Compound 48]: the “Tyrosinase activity inhibition ratio (%)” value in experiment [3] (setting [5]) was 38.2%; in experiment [3] (0.5 mg/mL, Table 6, 0.50 mg/mL) it was 47.1%. Further, the “DPPH radical-scavenging ratio (%)” value in experiment [2] stood at 33.5%.

For the compound `COc1cc(CCC(=O)CCCCCCCCCO)ccc1O` [Compound 46], the “Tyrosinase activity inhibition ratio (%)” value in experiment [3] (0.031 mg/mL, Table 4) amounted to 14.9%; in experiment [3] (0.063 mg/mL, Table 4), 23.8%; in experiment [3] (0.125 mg/mL, Table 4), 36.9%. In addition, the “DPPH radical-scavenging ratio (%)” value in experiment [2] came out at 39.4%.

`OC[C@H]1O[C@@H](Oc2ccc(O)cc2)[C@H](O)[C@@H](O)[C@@H]1O` [Arbutin, arbutin, reference compound]: the “Tyrosinase activity inhibition ratio (%)” value in experiment [4] (0.125 mg/mL, Table 2) came to 23.1%; in experiment [4] (0.25 mg/mL, Table 2), 28.5%; in experiment [4] (0.5 mg/mL in enzymatic reaction solution, Table 1) it was 36.2%; in experiment [4] (0.5 mg/mL, Table 2), 34.6%; in experiment [4] (1 mg/mL in enzymatic reaction solution, Table 1), 42.2%; in experiment [3] (0.031 mg/mL, Table 4) it was 10.7%. Besides, the “Tyrosinase activity inhibition ratio (%)” value in experiment [3] (0.063 mg/mL, Table 4) is 17.7%; in experiment [3] (0.125 mg/mL, Table 4) it was 24.7%; in experiment [3] (setting [5]) it was 35.8%; in experiment [3] (0.5 mg/mL, Table 3), 35.0%; in experiment [3] (0.5 mg/mL, Table 6, 0.50 mg/mL), 42.6%; in experiment [3] (1 mg/mL, Table 3) it was 41.6%. Also, in experiment [3] (1.00 mg/ml, Table 5), the “Tyrosinase activity inhibition ratio (%)” value is listed as 45.6%.

Regarding `COc1cc(CCC(=O)CC(O)CCCCCCC(=O)O)ccc1O` (stereo not shown) [Compound 34], in experiment [3] (1.00 mg/ml, Table 5), the “Tyrosinase activity inhibition ratio (%)” value is recorded as 60.1%. The “Hyaluronic acid-degrading enzyme activity inhibition ratio (%)” value came to 12.1% in experiment [1] (0.1 mg/mL), 31.6% in experiment [1] (0.2 mg/mL) and 81.3% in experiment [1] (0.4 mg/mL).
